Assay results taken from ChEMBL document CHEMBL4177732, “Anti-neuroinflammatory effects of sesquiterpenoids isolated from Nardostachys jatamansi” (Bioorg Med Chem Lett, 2018).

The compounds below were run on BV-2 (assay: Inhibition of lipopolysaccharide-induced iNOS protein expression in mouse BV2 cells pre-incubated for 3 hrs before LPS stimulation by Western blot method).
Assay type: functional, cell-based
In the case of `C[C@@H]1C[C@H](O)C=C2C(=O)C=C[C@@H](O)[C@]21C` [NARCHINOL B], the inhibition is reported as “Dose-dependent effect”.
`C[C@@H]1CCC=C2C(=O)C=C[C@@H](O)[C@]21C` was tested, and the inhibition was “Dose-dependent effect”.

The compounds below were run on BV-2 (assay: Inhibition of lipopolysaccharide-induced nitric oxide production in mouse BV2 cells assessed as reduction in nitrite level by Griess reaction based ELISA).
Assay type: functional, cell-based
For `C[C@@H]1C[C@H](O)C=C2C(=O)C=C[C@@H](C(C)(C)O)[C@]21C`, the IC50 was 30.5 µM and the inhibition was “Dose-dependent effect”.
With `C[C@@H]1C[C@H](O)C=C2C(=O)C=C[C@@H](O)[C@]21C` [NARCHINOL B] the IC50 was 2.43 µM and the inhibition was “Dose-dependent effect”.
In the case of `C[C@@H]1CCC=C2C(=O)C=C[C@@H](O)[C@]21C`, the IC50 is reported as 3.48 µM and the inhibition is reported as “Dose-dependent effect”.
Compound `CC(C)C1CC[C@@](C)(O)[C@@H]2CC[C@](C)(O)[C@H]2[C@@H]1O` (stereo partly drawn) has an IC50 greater than 60 µM.
`C=C1COC(=O)[C@H]2[C@@H]1C[C@H](O)[C@@]2(C)O` [JATAMANIN A] was tested, and the IC50 was 27.8 µM and the inhibition was “Dose-dependent effect”.
`CC(C)[C@]1(O)CC[C@@]2(C)[C@H](O)CC[C@](C)(O)[C@@H]2C1` was tested, and the IC50 was greater than 60 µM.
`C=C1[C@@H]2O[C@@H](OC)[C@H]3[C@@H]1C[C@H](O)[C@]3(C)O2` was tested, and the IC50 was greater than 60 µM.
In the case of `CC(C)(O)C[C@@H]1CC[C@]2(C)[C@@H](O)CC[C@@](C)(O)[C@@H]12`, the inhibition is reported as “Dose-dependent effect”.
`C[C@@H]1C[C@@H](O)C=C2C(=O)C=C[C@@H](C(C)(C)O)[C@]21C` was tested, and the IC50 was 46.5 µM and the inhibition was “Dose-dependent effect”.

What follows are compounds tested on BV-2 (assay: Inhibition of lipopolysaccharide-induced nitric oxide production in mouse BV2 cells assessed as reduction in nitrite level at 60 uM by Griess reaction based ELISA).
Assay type: functional
`CC(C)C1CC[C@@](C)(O)[C@@H]2CC[C@](C)(O)[C@H]2[C@@H]1O` (stereo partly drawn) was tested, and the inhibition at 60 µM was 34%.
In the case of `CC(C)[C@]1(O)CC[C@@]2(C)[C@H](O)CC[C@](C)(O)[C@@H]2C1`, the inhibition at 60 µM is reported as 28.4%.
For `C=C1[C@@H]2O[C@@H](OC)[C@H]3[C@@H]1C[C@H](O)[C@]3(C)O2`, the inhibition at 60 µM was 39.7%.
For `CC(C)(O)C[C@@H]1CC[C@]2(C)[C@@H](O)CC[C@@](C)(O)[C@@H]12`, the inhibition at 60 µM was 39%.

These compounds were tested on BV-2 (assay: Cytotoxicity in mouse BV2 cells by MTT assay).
Assay type: cell-based
In the case of `C[C@@H]1C[C@H](O)C=C2C(=O)C=C[C@@H](C(C)(C)O)[C@]21C`, the Activity is reported as “Non-Toxic”.
For `C[C@@H]1C[C@H](O)C=C2C(=O)C=C[C@@H](O)[C@]21C` [NARCHINOL B], the Activity was “Non-Toxic”.
In the case of `C[C@@H]1CCC=C2C(=O)C=C[C@@H](O)[C@]21C`, the Activity is reported as “Non-Toxic”.
`CC(C)C1CC[C@@](C)(O)[C@@H]2CC[C@](C)(O)[C@H]2[C@@H]1O` (stereo partly drawn) was tested, and the Activity was “Non-Toxic”.
For `C=C1COC(=O)[C@H]2[C@@H]1C[C@H](O)[C@@]2(C)O` [JATAMANIN A], the Activity was “Non-Toxic”.
For `CC(C)[C@]1(O)CC[C@@]2(C)[C@H](O)CC[C@](C)(O)[C@@H]2C1`, the Activity was “Non-Toxic”.
`C=C1[C@@H]2O[C@@H](OC)[C@H]3[C@@H]1C[C@H](O)[C@]3(C)O2` was tested, and the Activity was “Non-Toxic”.
For `CC(C)(O)C[C@@H]1CC[C@]2(C)[C@@H](O)CC[C@@](C)(O)[C@@H]12`, the Activity was “Non-Toxic”.
For `C[C@@H]1C[C@@H](O)C=C2C(=O)C=C[C@@H](C(C)(C)O)[C@]21C`, the Activity was “Non-Toxic”.

The compounds below were run on BV-2 (assay: Inhibition of lipopolysaccharide-induced PGE2 production in mouse BV2 cells pre-incubated for 1 hr before LPS stimulation for 24 hrs).
Assay type: functional, cell-based
Work on `C[C@@H]1C[C@H](O)C=C2C(=O)C=C[C@@H](O)[C@]21C` [NARCHINOL B] yielded an IC50 of 2.38 µM.
`C[C@@H]1CCC=C2C(=O)C=C[C@@H](O)[C@]21C` showed an IC50 of 2.05 µM.

The compounds below were run on BV-2 (assay: Inhibition of lipopolysaccharide-induced IL-1beta production in mouse BV2 cells pre-incubated for 1 hr before LPS stimulation for 24 hrs by ELISA).
Assay type: functional, cell-based
In the case of `C[C@@H]1C[C@H](O)C=C2C(=O)C=C[C@@H](O)[C@]21C` [NARCHINOL B], the IC50 is reported as 1.73 µM.
`C[C@@H]1CCC=C2C(=O)C=C[C@@H](O)[C@]21C` was tested, and the IC50 was 2.04 µM.

Each compound was assayed on BV-2 (assay: Inhibition of lipopolysaccharide-induced IL6 production in mouse BV2 cells pre-incubated for 1 hr before LPS stimulation for 24 hrs by ELISA).
Assay type: functional, cell-based
For `C[C@@H]1C[C@H](O)C=C2C(=O)C=C[C@@H](O)[C@]21C` [NARCHINOL B], the IC50 was 2.9 µM.
In the case of `C[C@@H]1CCC=C2C(=O)C=C[C@@H](O)[C@]21C`, the IC50 is reported as 3.57 µM.

These compounds were tested on BV-2 (assay: Inhibition of lipopolysaccharide-induced TNFalpha production in mouse BV2 cells pre-incubated for 1 hr before LPS stimulation for 24 hrs by ELISA).
Assay type: functional, cell-based
Work on `C[C@@H]1C[C@H](O)C=C2C(=O)C=C[C@@H](O)[C@]21C` [NARCHINOL B] yielded an IC50 of 1.7 µM.
`C[C@@H]1CCC=C2C(=O)C=C[C@@H](O)[C@]21C` showed an IC50 of 2.11 µM.

The compounds below were run on Microglia (assay: Inhibition of lipopolysaccharide-induced nitric oxide production in Sprague-Dawley rat primary microglia cells assessed as reduction in nitrite level by Griess reaction based ELISA).
Assay type: functional, cell-based
For `C[C@@H]1C[C@H](O)C=C2C(=O)C=C[C@@H](O)[C@]21C` [NARCHINOL B], the IC50 was 4.17 µM.
Work on `C[C@@H]1CCC=C2C(=O)C=C[C@@H](O)[C@]21C` yielded an IC50 of 4.96 µM.

Each compound was assayed on Microglia (assay: Inhibition of lipopolysaccharide-induced PGE2 production in Sprague-Dawley rat primary microglia cells pre-incubated for 1 hr before LPS stimulation for 24 hrs).
Assay type: functional, cell-based
Work on `C[C@@H]1C[C@H](O)C=C2C(=O)C=C[C@@H](O)[C@]21C` [NARCHINOL B] yielded an IC50 of 3.1 µM.
`C[C@@H]1CCC=C2C(=O)C=C[C@@H](O)[C@]21C` was tested, and the IC50 was 5.33 µM.

Each compound was assayed on Microglia (assay: Inhibition of lipopolysaccharide-induced IL-1beta production in Sprague-Dawley rat primary microglia cells pre-incubated for 1 hr before LPS stimulation for 24 hrs by ELISA).
Assay type: functional, cell-based
Work on `C[C@@H]1C[C@H](O)C=C2C(=O)C=C[C@@H](O)[C@]21C` [NARCHINOL B] yielded an IC50 of 3.11 µM.
With `C[C@@H]1CCC=C2C(=O)C=C[C@@H](O)[C@]21C` the IC50 was 5.84 µM.

The compounds below were run on Microglia (assay: Inhibition of lipopolysaccharide-induced IL6 production in Sprague-Dawley rat primary microglia cells pre-incubated for 1 hr before LPS stimulation for 24 hrs by ELISA).
Assay type: functional, cell-based
For `C[C@@H]1C[C@H](O)C=C2C(=O)C=C[C@@H](O)[C@]21C` [NARCHINOL B], the IC50 was 4 µM.
With `C[C@@H]1CCC=C2C(=O)C=C[C@@H](O)[C@]21C` the IC50 was 3.62 µM.

What follows are compounds tested on Microglia (assay: Inhibition of lipopolysaccharide-induced TNFalpha production in Sprague-Dawley rat primary microglia cells pre-incubated for 1 hr before LPS stimulation for 24 hrs by ELISA).
Assay type: functional, cell-based
With `C[C@@H]1C[C@H](O)C=C2C(=O)C=C[C@@H](O)[C@]21C` [NARCHINOL B] the IC50 was 9.83 µM.
`C[C@@H]1CCC=C2C(=O)C=C[C@@H](O)[C@]21C` gave an IC50 of 3.18 µM.

What follows are compounds tested on BV-2 (assay: Inhibition of lipopolysaccharide-induced COX2 protein expression in mouse BV2 cells pre-incubated for 3 hrs before LPS stimulation by Western blot method).
Assay type: functional, cell-based
With `C[C@@H]1C[C@H](O)C=C2C(=O)C=C[C@@H](O)[C@]21C` [NARCHINOL B] the inhibition was “Dose-dependent effect”.
`C[C@@H]1CCC=C2C(=O)C=C[C@@H](O)[C@]21C` was tested, and the inhibition was “Dose-dependent effect”.

These compounds were tested on Microglia (assay: Inhibition of lipopolysaccharide-induced iNOS protein expression in Sprague-Dawley rat primary microglia cells pre-incubated for 3 hrs before LPS stimulation by Western blot method).
Assay type: functional, cell-based
In the case of `C[C@@H]1C[C@H](O)C=C2C(=O)C=C[C@@H](O)[C@]21C` [NARCHINOL B], the inhibition is reported as “Dose-dependent effect”.
With `C[C@@H]1CCC=C2C(=O)C=C[C@@H](O)[C@]21C` the inhibition was “Dose-dependent effect”.

Each compound was assayed on Microglia (assay: Inhibition of lipopolysaccharide-induced COX2 protein expression in Sprague-Dawley rat primary microglia cells pre-incubated for 3 hrs before LPS stimulation by Western blot method).
Assay type: functional, cell-based
In the case of `C[C@@H]1C[C@H](O)C=C2C(=O)C=C[C@@H](O)[C@]21C` [NARCHINOL B], the inhibition is reported as “Dose-dependent effect”.
With `C[C@@H]1CCC=C2C(=O)C=C[C@@H](O)[C@]21C` the inhibition was “Dose-dependent effect”.
